Assay results: US6218378A, “Anti-tumor agents comprising pyridyl-substituted metal-diphosphine complex” (priority 1994, dated 2001)

What was measured:
tumour models in mice = settings: reference EP0198696; cited from earlier work
41M-cisR = assay: cytotoxicity assay, sulforhodamine B; type: cell-based, human; settings: 96 hrs, mean ± SD or individual values when n<3
Experimental: (§1) In Table 2, reference is made to cell lines 41M, 41M-cisR, SKOV-3, CH1 and CH1-cisR.
(§2) J. Cancer 69 1-7. The characteristics of the cell line pairs CH1/CH1 cisR, 41M/41McisR and 41M/SKOV3 are described in Table 3.
(§3) The cytotoxicity assay used sulforhodamine B which stains the basic amino acids. Cells (5000 or 2500 for SKOV-3) were seeded into 96 well microtitre plates (Linbro, Flow Laboratories Inc., USA) in 0.1 ml of medium. After an overnight incubation, the metal phosphine compounds were dissolved in 0.9% NaCl or ethanol and diluted with medium, were added at concentrations ranging from 0.005 to 50 μM to quadruplicate wells. After 96 hrs incubation, the medium was removed and cells were fixed in 0.2 ml of cold 10% (w/v) trichloroacetic acid (May & Baker Ltd., Dagenham, England) for 30 mins at 4° C. The plates were washed five times with tap water. Then 0.1 ml of 0.4% (w/v) sulforhodamine B (Sigma Chemical Co., St. Louis, USA) dissolved in 1% acetic acid (Ajax Chemicals, Australia) was added to the wells and left to stand at room temperature for 15 mins. The plates were then washed five times with 1% acetic acid and left to dry overnight. The next morning, 0.1 ml of 10 mM Tris buffer (Sigma Chemical Co., St. Louis, USA) was then added to each plate to solubilise the dye. Absorbance was read at a wavelength of 570 nm using a 96 well plate reader Dynatech MR 5000 plate reader. Absorbance of treatment cells was expressed as a percentage of positive (drug-free) controls. The results were plotted as percentage growth versus drug concentration.

SKOV-3 = assay: cytotoxicity assay, sulforhodamine B; type: cell-based, human; settings: 96 hrs, mean ± SD or individual values when n<3
Experimental: as §1, §2, §3

41M = assay: cytotoxicity assay, sulforhodamine B; type: cell-based, human; settings: 96 hrs, mean ± SD or individual values when n<3
Experimental: as §1, §2, §3

CH1-cisR = assay: cytotoxicity assay, sulforhodamine B; type: cell-based, human; settings: 96 hrs, mean ± SD or individual values when n<3
Experimental: as §1, §2, §3

CH1 = assay: cytotoxicity assay, sulforhodamine B; type: cell-based, human; settings: 96 hrs, mean ± SD or individual values when n<3
Experimental: as §1, §2, §3

HeLa = assay: cell survival after drug treatment ([methyl-3H]-thymidine); type: cell-based, human
Excerpt: (§4) In FIGS. 1-4 and Table 1, reference is made to the cell lines HeLa, HeLa-S1a, JAM, CI-80-13S and MM96.
(§5) The origins of the human melanoma cell line MM96 has been described in Whitehead et al., 1973, Pigment Cell 1 383-389. The cell line JAM is described in Ward et al., 1987, Cancer Res. 47 2662-2667. The origin of the ovarian tumour line CI-80-13S has been described in Bertoncello et al., 1985, Aust. J. Exp. Biol. Med. Sci. 63 241-243. The origin of the cervical carcinoma cell line HeLa has been described in Maynard et al., 1986, Cancer Res. 46 5009-5093. The subclone HeLa-S1a was derived by stably transfecting HeLa with PAI-2 cDNA described in Schleuning et al., 1987, Mol. Cell. Biol. 7 4564-4567 in the sense orientation under the control of the cyto-megalovirus (CMV) promoter. The stably infected subclone was isolated following G418 selection and expression of the PAI-2 transgene characterised by immunoblot analysis and quantitated by ELISA. All of these cell lines have been used before for carrying out cell survival assays referred to in FIGS. 1-4. Cells were cultured at 37° in 5% CO2 /air in Roswell Park Memorial Institute medium 1640 containing 5% foetal calf serum, 100 μg/ml streptomycin, 100 IU/ml penicillin, 1 mM pyruvate, 50 μM nicotinamide and 3 mM HEPES.
(§6) Cells were seeded in microtitre plates (lowest number for fastest growing cells: 1000 HeLa, 2000 MM96, […] CI-80-13S cells per 6 mm well in 100 μl), normally but not necessarily allowed to attach overnight, then 5 dilutions of the drug were added to duplicate wells. After an overnight incubation to equilibrate the pH, the lids were quickly taped around the edge to prevent evaporation. The plates were incubated for 5-7 days, until the controls were nearly confluent. Cell growth/morphology was scored at each dose visually (inverted microscope). The medium was then replaced by 50 μl fresh medium containing 2 u/Ci/ml [methyl-3H]-thymidine (5 Ci/mmol; Radiochemical Centre, Amersham, Bucks., U.K.) and incubated for 2-4 hr. The cells were washed with PBS (0.1 M NaCl, 50 mM phosphate, pH 7.2), detached with 100 μl of PBS containing 0.2 mg/ml trypsin and 10 mM EDTA, and washed onto a glass fibre GF/a filter mat with water using a cell harvester. Later, wells were checked under the microscope to ensure complete detachment and washout. Radioactivity was determined in an LKB Beta Plate counter and the results plotted as log % control cpm versus dose. The ID50 (dose required to give 50% survival) was interpolated from this survival curve.

HeLa-S1a = assay: as above; type: cell-based, human
Excerpt: as §4, §5, §6

MM96 = assay: as above; type: cell-based, human
Excerpt: as §4, §5, §6

CI-80-13S = assay: as above; type: cell-based, human
Excerpt: as §4, §5, §6

For `[Cl-].c1cc([P+]2(c3ccncc3)CC[P+](c3ccncc3)(c3ccncc3)[Au-3]23[P+](c2ccncc2)(c2ccncc2)CC[P+]3(c2ccncc2)c2ccncc2)ccn1` [[Au(d4pype)2]Cl], which “anti-tumour activity (EP0198696)” value (tumour models in mice) is on record?
The value was “insignificant anti-tumour activity”.

What about the IC50 (41M-cisR) of the same molecule?
Its IC50 is greater than 100 µM.

What about the IC50 (SKOV-3) of the same molecule?
The IC50 was greater than 100 µM.

And the IC50 (41M)?
The IC50 was greater than 100 µM.

What about the IC50 (CH1-cisR) of the same molecule?
The IC50 was 0.6 ± 0.2 µM.

What about the IC50 (CH1) of the same molecule?
Its IC50 is 0.4 ± 0.1 µM.

And the “cytotoxicity (FIGS. 1 and 2)” value (HeLa; HeLa cervical carcinoma in vitro)?
Its value is “inactive”.

What about the IC50 (HeLa; HeLa, mean ± SD or individual values when n<3, 5-7 days) of the same molecule?
The IC50 was greater than 10 µM.

What about the “cytotoxicity (FIGS. 1 and 2)” value (HeLa-S1a; HeLa-S1a in vitro) of the same molecule?
Its value is “selectively cytotoxic”.

What about the IC50 (HeLa-S1a; HeLa-S1a, mean ± SD or individual values when n<3, 5-7 days) of the same molecule?
The IC50 was 0.3 µM.

And the IC50 (MM96; MM96L, mean ± SD or individual values when n<3, 5-7 days)?
Its IC50 is greater than 10 µM.

And the “cytotoxicity (FIGS. 1 and 2)” value (MM96; MM96 melanoma in vitro)?
The value was “inactive”.

What about the “cytotoxicity (FIGS. 1 and 2)” value (CI-80-13S; CI-80-13S ovarian in vitro) of the same molecule?
The value was “selectively cytotoxic”.

And the IC50 (CI-80-13S; CI-80-13S, mean ± SD or individual values when n<3, 5-7 days)?
The IC50 was 0.32 ± 0.15 µM.
